Results reported in patent publication US10167518B2, “Methods of stratifying patients for treatment with retinoic acid receptor-alpha agonists” (Syros Pharmaceuticals, Inc., priority 2015, dated 2019).

Tests used:
RAR beta = molecular target: T1, RAR beta (Homo sapiens, UniProt P10826); test: SelectScreen Nuclear Profiling, agonist specificity for RAR beta; format: cell-based
T1 sequence (P10826 1-455): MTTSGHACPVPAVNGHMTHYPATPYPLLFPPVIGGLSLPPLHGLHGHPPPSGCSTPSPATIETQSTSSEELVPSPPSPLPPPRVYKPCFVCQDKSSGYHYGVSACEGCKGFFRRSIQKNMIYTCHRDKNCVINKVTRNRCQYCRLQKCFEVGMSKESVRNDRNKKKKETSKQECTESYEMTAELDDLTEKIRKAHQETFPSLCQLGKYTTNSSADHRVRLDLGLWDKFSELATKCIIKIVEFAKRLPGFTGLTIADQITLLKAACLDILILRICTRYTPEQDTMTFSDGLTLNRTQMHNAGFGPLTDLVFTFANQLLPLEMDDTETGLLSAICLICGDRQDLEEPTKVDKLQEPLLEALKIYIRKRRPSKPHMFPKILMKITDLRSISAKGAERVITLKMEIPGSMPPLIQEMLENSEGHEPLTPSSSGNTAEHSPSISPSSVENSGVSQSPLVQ
Protocol: (§1) The agonist specificity of the various test compounds for each type of RaR is assessed at Life Technologies using their SelectScreen® Nuclear Profiling Services.

RAR gamma = molecular target: T2, RAR gamma (Homo sapiens, UniProt P13631); test: SelectScreen Nuclear Profiling, agonist specificity for RAR gamma; format: cell-based
T2 sequence (P13631 1-454): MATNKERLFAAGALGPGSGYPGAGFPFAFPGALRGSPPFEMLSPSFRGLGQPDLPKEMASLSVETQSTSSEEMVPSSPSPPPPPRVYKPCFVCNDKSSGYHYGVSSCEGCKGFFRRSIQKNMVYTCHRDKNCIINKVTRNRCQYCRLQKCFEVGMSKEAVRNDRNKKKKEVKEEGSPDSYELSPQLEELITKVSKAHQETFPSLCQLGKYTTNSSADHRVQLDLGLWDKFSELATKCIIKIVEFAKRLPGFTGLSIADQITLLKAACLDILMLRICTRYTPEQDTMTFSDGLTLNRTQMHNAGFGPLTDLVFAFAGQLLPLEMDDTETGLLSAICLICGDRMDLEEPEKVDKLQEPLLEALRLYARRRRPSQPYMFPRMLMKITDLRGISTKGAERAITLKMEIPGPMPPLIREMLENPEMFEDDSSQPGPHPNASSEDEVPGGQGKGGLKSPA
Protocol: as §1

RAR alpha = molecular target: T3, RAR alpha (Homo sapiens, UniProt P10276); test: SelectScreen Nuclear Profiling, agonist specificity for RAR alpha; format: cell-based; settings: for EC50 / RAR alpha % max: agonist specificity, SelectScreen; for RAR-a/RAR-g Selectivity % max: ratio of RAR alpha to RAR gamma % max; for RAR-a/RAR-g Selectivity EC50: ratio of RAR gamma to RAR alpha EC50
T3 sequence (P10276 1-462): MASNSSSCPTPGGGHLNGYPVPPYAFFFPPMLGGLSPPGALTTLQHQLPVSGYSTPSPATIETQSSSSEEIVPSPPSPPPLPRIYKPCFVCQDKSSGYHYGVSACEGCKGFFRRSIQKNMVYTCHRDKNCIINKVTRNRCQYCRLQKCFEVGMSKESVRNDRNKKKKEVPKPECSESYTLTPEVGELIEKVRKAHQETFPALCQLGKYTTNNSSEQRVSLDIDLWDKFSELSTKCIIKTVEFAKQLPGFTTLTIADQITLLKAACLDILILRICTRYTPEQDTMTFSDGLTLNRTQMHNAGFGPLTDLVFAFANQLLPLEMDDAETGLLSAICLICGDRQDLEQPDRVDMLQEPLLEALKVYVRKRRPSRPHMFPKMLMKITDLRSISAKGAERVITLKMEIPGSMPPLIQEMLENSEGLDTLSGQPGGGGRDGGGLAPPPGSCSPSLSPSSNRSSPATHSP
Protocol: as §1

[1] = tested on: breast cancer cell lines (SKBR3, Au565, ZR75, Hcc1143); test: Cell viability screening of breast cancer cell lines (ATPlite/CyQuant); format: cell-based; settings: four breast cancer cell lines, 5 days of treatment, FIG. 7
Protocol: All cell lines are obtained from ATCC and cultured at 37° C. in 5% CO2. All are grown in RPMI1640 supplemented with 10 mM HEPES buffer, 2 mM L-glutamine, 50 U/mL penicillin, 50 […] and 10% fetal bovine serum (FBS, all from Invitrogen). Cells lines included AU565, SKBR3, T47D, HCC1143, MCF7, ZR-75-1, and HCC1569.
On the day of the experiment, cells are homogenized using Accumax (EMD Millipore), counted, and adjusted to 40,000 cells/ml for breast cancer lines and 60,000 cells/mL for AML in appropriate growth media. Using a Biotek EL406, 50 μl of cells are distributed into white (ATPlite) or black (CyQuant) 384-well plates (Thermo). Cells are returned to 37° C. incubator to allow adhesion. After three hours, compounds are added to plates using a 20 nl 384-well pin transfer manifold on a Janus workstation. […]
Cell viability is read out using ATPlite (Perkin Elmer) or CyQuant (Life Technologies). […] Plates are incubated for 15 min at room temperature before the luminescence signal was read on an Envision Plate Reader (Perkin Elmer). […] Reagent are added using a multichannel pipet and plates are replaced in incubator for 30 minutes prior to readout on an Envision Plate Reader (Perkin Elmer).
Data acquired as described is stored and grouped in Microsoft's Excel and analyzed using GraphPad Prism Software. […]

[2] = tested on: HCC1954 tumor cells xenograft; test: HCC1954 breast cancer cell line-derived xenograft, tumor volume; format: in vivo, mice
Protocol: Breast cancer cell line (HCC1954)-derived xenograft models in BALB/c nude immunocompromised mice are prepared by Crown Biosciences (Beijing, China) essentially as follows.
Six to eight week old BALB/c nude immunocompromised mice, weighing between 18-20 g are inoculated subcutaneously at the right flank region with HCC1954 tumor cells (5×10^6) in 0.1 ml of PBS (1:1 matrigel) for tumor development. […] The final dosage in mice is 6 mg per kg per day in the high dose arm (n=10) and 3 mg per kg per day in the low dose arm (n=10) in a 10 ml/kg volume. […] Tumor volume is measured twice weekly by caliper measurement.

[3] = tested on: AM7577 AML patient sample-derived xenograft; test: AML patient sample-derived xenograft AM7577, % human CD45+ cells; format: in vivo, mice; settings: 6 mg per kg daily oral
Protocol: (§2) Different AML patient sample (AM8096, AM5512, AM7577 and AM7440)-derived xenograft models in BALB/c nude immunocompromised mice are prepared by Crown Biosciences (Beijing, China) essentially as follows.
(§3) Approximately 2×10^6 cells from each patient sample are suspended in 100 μL PBS and injected into separate mice (n=3 for each different patient sample and for the control) by IV tail injection. For AM5512, AM7577 and AM7440 xenografts, tumor burden is considered high enough to start treatment when the concentration of human CD45^+ cells reaches ˜1-5% in the animal's peripheral blood. Human CD45^+ cells are detected in mouse blood (obtained via eye bleeds) using a fluorescence activated cell sorter and FITC anti-human CD45 (Biolegend, Cat#304037). For AM8096 xenografts, treatment is begun 40 days after injection of cells.
(§4) Human CD45^+ cell levels in peripheral blood from the treated animals and control animals are measured once a week.

[4] = tested on: AML cell lines (SigM5, OCI M1, MV411, HEL, Kasumi); test: Cell viability screening of AML cell lines (ATPlite/CyQuant); format: cell-based
Protocol: On the day of the experiment, cells are homogenized using Accumax (EMD Millipore), counted, and adjusted to 40,000 cells/ml for breast cancer lines and 60,000 cells/mL for AML in appropriate growth media. Using a Biotek EL406, 50 μl of cells are distributed into white (ATPlite) or black (CyQuant) 384-well plates (Thermo). Cells are returned to 37° C. incubator to allow adhesion. After three hours, compounds are added to plates using a 20 nl 384-well pin transfer manifold on a Janus workstation. Stocks are arrayed in 10 point quadruplicate dose response in DMSO stock in 384-well compound plates. After addition of compound, plates are incubated for five or ten days in a 37° C. incubator.
Cell viability is read out using ATPlite (Perkin Elmer) or CyQuant (Life Technologies). For ATPlite, plates are removed from the incubator and brought to room temperature prior to use. Lyophilized powder of ATPlite reagent is resuspended in lysis buffer and diluted 1:2 with distilled water. 25 μL of this solution is added to each well using the Biotek liquid handler. Plates are incubated for 15 min at room temperature before the luminescence signal was read on an Envision Plate Reader (Perkin Elmer). For CyQuant, reagents are mixed as per manufacturer's instructions in PBS (Gibco). Reagent are added using a multichannel pipet and plates are replaced in incubator for 30 minutes prior to readout on an Envision Plate Reader (Perkin Elmer).
Data acquired as described is stored and grouped in Microsoft's Excel and analyzed using GraphPad Prism Software. […] Edge wells were excluded.

[5] = tested on: AM5512 AML patient sample-derived xenograft; test: AML patient sample-derived xenograft AM5512, % human CD45+ cells and survival
Protocol: AM5512 xenograft mice are prepared as described above.

[6] = tested on: AM8096 AML patient sample-derived xenograft; test: AML patient sample-derived xenograft AM8096, % human CD45+ cells; format: in vivo, mice; settings: 6 mg per kg daily oral, after 35 days
Protocol: as §2, §3, §4

[7] = tested on: AM7440 AML patient sample-derived xenograft; test: AML patient sample-derived xenograft AM7440, % human CD45+ cells; format: in vivo, mice; settings: 6 mg per kg daily oral
Protocol: as §2, §3, §4

| Structure (SMILES) | RAR beta % max (RAR beta) | EC50 (RAR gamma) | RAR gamma % max (RAR gamma) | EC50 (RAR alpha) | RAR alpha % max (RAR alpha) | EC50 (RAR beta) | further results |
| --- | --- | --- | --- | --- | --- | --- | --- |
| COc1ccc(-c2ccc3cc(C(=O)O)ccc3c2)cc1C12CC3CC(CC(C3)C1)C2 [Adapalene] | 69.36% |  | 87.7% | 5.01 nM | 102.2% | 9.73 nM |  |
| CC1(C)CCSc2ccc(C#Cc3ccc(C(=O)O)cn3)cc21 [Tazarotenic, Tazarotenic acid] | 71.88% | 1.1 nM | 78.33% | 0.353 nM | 121.4% | 5.17 nM | RAR-a/RAR-g Selectivity % max (RAR alpha): 1.5499; RAR-a/RAR-g Selectivity EC50 (RAR alpha): 3.1172 |
| CC1(C)CCC(C)(C)c2cc(NC(=O)c3ccc(C(=O)O)cc3)ccc21 [tamibarotene] | 114.9% |  | 106.1% |  |  |  | sensitivity order of breast cancer cell lines (viability) [1]: SKBR3>Au565>ZR75>Hcc1143; tumor volume ([2]; 3 and 6 mg per kg per day, QD PO, up to 21 days): reduces tumor volume in this model in a dose-dependent manner; reduction in tumor volume, p (t-test, Welch's correction) ([2]; high dose arm, 6 mg per kg per day QD PO): 0.0048; reduction in tumor volume, p (t-test, Welch's correction) ([2]; low dose arm, 3 mg per kg per day QD PO): 0.0552; % human CD45+ cells (overall, blood, bone marrow, spleen) vs vehicle [3]: no significant reduction; responsiveness of cell line ([4]; HEL cells): non-responsive; responsiveness of cell line ([4]; MV411 cells): tamibarotene-responsive; sensitivity order of AML cell lines (viability) ([4]; SigM5, MV411, HEL, Kasumi, FIGS. 23A-B): SigM5>MV411>HEL=Kasumi; sensitivity order of AML cell lines (viability) ([4]; three AML cell lines, 5 days of treatment, FIG. 9): SigM5>OCI M1>HEL; % CD45+ cells vs vehicle control and ATRA-treated animals ([5]; 3 mg/kg BID, after 28 days): significant reduction; animals surviving the course of the experiment ([5]; 3 mg/kg BID, n=7): 5 of the 7; total % of CD45+ cells and % in blood, bone marrow and spleen vs vehicle ([5]; 6 mg per kg daily oral, after 35 days): significant reduction; total % of CD45+ cells and % in blood, bone marrow and spleen vs vehicle [6]: significant reduction; tumor volume (overall, blood, bone marrow, spleen) vs vehicle [7]: no significant reduction |
| CC1(C)CC=C(c2cnc3ccccc3c2)c2cc(C(=O)Nc3ccc(C(=O)O)cc3)ccc21 [BMS195614] | 0% | 434 nM | −14.57% | 1340 nM | −31.01% |  |  |
| CC1(C)CCC(C)(C)c2cc(C(=O)Nc3ccc(C(=O)O)cc3)ccc21 [AM580] | 78.24% |  | 87.06% |  |  |  |  |
| CC1=C(/C=C/C(C)=C/C=C/C(C)=C/C(=O)O)C(C)(C)CCC1 [Tretinoin, all-trans retinoic acid] | 92.77% |  | 99.37% |  | 149.4% |  | % CD45+ cells vs vehicle control ([5]; 4 mg/kg BID, after 14 days): reduction in % CD45^+ cells; survival ([5]; 4 mg/kg BID, n=7): none of those mice survived past day 21 |

Second part, led by results:

| RAR beta % max (RAR beta) | EC50 (RAR gamma) | RAR gamma % max (RAR gamma) | EC50 (RAR alpha) | RAR alpha % max (RAR alpha) | EC50 (RAR beta) | Structure (SMILES) | further results |
| --- | --- | --- | --- | --- | --- | --- | --- |
| 0% | 512 nM | −13.41% | 27.4 nM | −3.417% |  | CC1(C)CC=C(C#Cc2ccccc2)c2cc(/C=C/c3ccc(C(=O)O)cc3)ccc21 [BMS493] |  |
| 6% | 136 nM | 19.83% | 1.43 nM | 122.2% | 701 nM | CC1(C)C(=O)C(C)(C)c2cc(C(=O)Nc3ccc(C(=O)O)cc3)ccc21 [BMS753] | specificity for RARA over RaR-γ (RAR alpha; comparison among tested compounds): greatest specificity for RARA over RaR-γ; RAR-a/RAR-g Selectivity % max (RAR alpha): 6.1624; RAR-a/RAR-g Selectivity EC50 (RAR alpha): 94.8396 |
